In publication PMC7853427 (Journal of the American Chemical Society, 2021):

Target: E. coli PheRS (Escherichia coli, UniProt P08312)
Experiment: inhibition of Phe activation by purified PheRS
Type: biochemical

E. coli PheRS, sequence (P08312 whole entry): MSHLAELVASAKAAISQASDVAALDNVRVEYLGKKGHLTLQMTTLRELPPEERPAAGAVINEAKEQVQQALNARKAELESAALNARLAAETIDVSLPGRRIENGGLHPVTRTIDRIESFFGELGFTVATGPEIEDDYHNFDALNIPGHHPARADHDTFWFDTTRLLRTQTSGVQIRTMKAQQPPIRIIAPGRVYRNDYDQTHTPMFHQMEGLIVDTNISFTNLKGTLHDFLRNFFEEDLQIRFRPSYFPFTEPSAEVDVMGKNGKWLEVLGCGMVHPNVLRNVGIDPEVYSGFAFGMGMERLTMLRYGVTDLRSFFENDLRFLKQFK
E. coli PheRS, sequence (P07395 whole entry partner): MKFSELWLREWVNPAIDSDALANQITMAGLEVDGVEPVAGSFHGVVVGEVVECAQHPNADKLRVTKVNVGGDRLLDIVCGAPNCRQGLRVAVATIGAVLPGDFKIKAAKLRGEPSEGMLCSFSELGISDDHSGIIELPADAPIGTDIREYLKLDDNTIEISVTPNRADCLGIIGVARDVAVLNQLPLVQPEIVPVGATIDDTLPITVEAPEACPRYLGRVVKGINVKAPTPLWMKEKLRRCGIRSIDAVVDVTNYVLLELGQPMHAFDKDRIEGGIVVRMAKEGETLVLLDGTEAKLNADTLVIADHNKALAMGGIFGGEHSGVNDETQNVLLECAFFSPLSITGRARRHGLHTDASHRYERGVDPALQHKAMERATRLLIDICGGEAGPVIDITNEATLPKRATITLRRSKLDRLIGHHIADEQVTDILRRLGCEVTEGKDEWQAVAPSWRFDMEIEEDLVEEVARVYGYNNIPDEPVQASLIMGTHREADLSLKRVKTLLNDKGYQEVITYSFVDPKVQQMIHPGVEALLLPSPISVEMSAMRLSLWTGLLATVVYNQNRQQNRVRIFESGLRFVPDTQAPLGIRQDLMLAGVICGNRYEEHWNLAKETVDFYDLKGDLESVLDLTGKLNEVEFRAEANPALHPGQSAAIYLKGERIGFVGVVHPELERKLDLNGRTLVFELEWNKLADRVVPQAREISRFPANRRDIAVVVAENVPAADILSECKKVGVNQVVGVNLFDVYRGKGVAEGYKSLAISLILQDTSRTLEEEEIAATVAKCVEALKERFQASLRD

CC(Cc1ccccc1)NCc1ccccc1 (stereo not shown) [compound 20, norbenzamphetamine]
IC50: 169 µM
